Test results reported in ChEMBL document CHEMBL4831534, “Design, Synthesis, and Monoamine Oxidase Inhibitory Activity of (+)-Cinchonaminone and Its Simplified Derivatives” (ACS Med Chem Lett, 2021).

Legend:
[1] = target: T1, Amine oxidase [flavin-containing] A (Homo sapiens, UniProt P21397); assay: Inhibition of human recombinant MAO-A expressed in baculovirus infected BTI insect cells using luminogenic MAO substrate incubated for 1 hr by MAO-Glo assay
T1 sequence (P21397 whole entry): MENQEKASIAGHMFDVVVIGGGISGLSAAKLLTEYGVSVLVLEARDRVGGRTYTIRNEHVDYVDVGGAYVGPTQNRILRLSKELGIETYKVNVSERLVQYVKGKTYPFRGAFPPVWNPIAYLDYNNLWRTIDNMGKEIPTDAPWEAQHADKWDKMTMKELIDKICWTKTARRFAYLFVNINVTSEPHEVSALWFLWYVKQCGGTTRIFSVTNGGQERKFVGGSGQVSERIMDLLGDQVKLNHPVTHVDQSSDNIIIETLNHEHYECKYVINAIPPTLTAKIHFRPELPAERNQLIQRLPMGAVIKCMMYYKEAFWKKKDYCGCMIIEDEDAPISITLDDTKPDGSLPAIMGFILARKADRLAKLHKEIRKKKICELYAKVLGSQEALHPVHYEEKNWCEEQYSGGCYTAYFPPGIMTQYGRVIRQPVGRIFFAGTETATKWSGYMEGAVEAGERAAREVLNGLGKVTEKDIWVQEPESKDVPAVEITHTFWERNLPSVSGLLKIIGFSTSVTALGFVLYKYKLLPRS

[2] = target: T2, Amine oxidase [flavin-containing] B (Homo sapiens, UniProt P27338); assay: Inhibition of human recombinant MAO-B expressed in baculovirus infected BTI insect cells using luminogenic MAO substrate incubated for 1 hr by MAO-Glo assay
T2 sequence (P27338 whole entry): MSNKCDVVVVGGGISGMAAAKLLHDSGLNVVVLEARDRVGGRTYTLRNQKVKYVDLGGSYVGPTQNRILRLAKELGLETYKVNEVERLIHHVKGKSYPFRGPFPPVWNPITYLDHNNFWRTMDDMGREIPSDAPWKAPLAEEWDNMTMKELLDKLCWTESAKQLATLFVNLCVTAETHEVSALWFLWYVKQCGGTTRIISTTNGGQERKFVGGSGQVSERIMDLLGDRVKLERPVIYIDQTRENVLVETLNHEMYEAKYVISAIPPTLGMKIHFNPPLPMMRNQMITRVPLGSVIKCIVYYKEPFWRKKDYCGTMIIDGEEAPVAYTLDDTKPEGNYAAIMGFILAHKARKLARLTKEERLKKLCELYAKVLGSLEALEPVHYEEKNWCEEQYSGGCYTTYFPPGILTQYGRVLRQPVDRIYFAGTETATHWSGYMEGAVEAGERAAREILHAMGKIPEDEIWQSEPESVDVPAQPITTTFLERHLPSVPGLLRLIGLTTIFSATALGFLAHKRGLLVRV

Homo sapiens = organism: Homo sapiens; assay: Selectivity index, ratio of IC50 for human recombinant MOA-A expressed in baculovirus infected BTI insect cells to IC50 for MAO-B expressed in baculovirus infected BTI insect cells; settings: time 1.0 hrs

| IC50 [1] [µM] | IC50 [2] [µM] | Compound | Selectivity Index (Homo sapiens) |
| --- | --- | --- | --- |
| 82.5 | 121 | Cc1c(C(=O)CC2CCNCC2)[nH]c2ccccc12 | – |
| > 1000 | > 1000 | O=C(CC1CCNCC1)c1[nH]c2ccccc2c1CCO | – |

More lines, now with the values behind:

| Compound | IC50 [1] [µM] | IC50 [2] [µM] | Selectivity Index (Homo sapiens) |
| --- | --- | --- | --- |
| C=C[C@@H]1CNCC[C@@H]1CC(=O)c1[nH]c2ccccc2c1CCO | > 1000 | 488 | – |
| C=C[C@H]1CNCC[C@H]1CC(=O)c1[nH]c2ccccc2c1CCO | > 1000 | 412 | – |
| O=C(CC1CCNCC1)c1cc2ccccc2[nH]1 | 720 | 66.6 | 11 |
